Drawing on PubChem BioAssay AID686923 (Vanderbilt Specialized Chemistry Center, 2013), this text covers IC50 for three compounds.

Active and inactive are the calls of the source. No rule for the calls is given here.

The target in assay [1] is In vitro counter assay against key known off-targets for selectedBMP Compounds. Nature of the assay: PubChem AID 686923. Conditions: in vitro kinase counter-screen panel.
In assay [2] the target is Vascular endothelial growth factor receptor 2 (Homo sapiens) (UniProt P35968). In words: PubChem AID 686923. The note with it: in vitro kinase counter-screen panel. (The purpose of a counterscreen is to sort out artefacts and off-target activity.)
Vascular endothelial growth factor receptor 2 (Homo sapiens), sequence (P35968 whole entry, looked up): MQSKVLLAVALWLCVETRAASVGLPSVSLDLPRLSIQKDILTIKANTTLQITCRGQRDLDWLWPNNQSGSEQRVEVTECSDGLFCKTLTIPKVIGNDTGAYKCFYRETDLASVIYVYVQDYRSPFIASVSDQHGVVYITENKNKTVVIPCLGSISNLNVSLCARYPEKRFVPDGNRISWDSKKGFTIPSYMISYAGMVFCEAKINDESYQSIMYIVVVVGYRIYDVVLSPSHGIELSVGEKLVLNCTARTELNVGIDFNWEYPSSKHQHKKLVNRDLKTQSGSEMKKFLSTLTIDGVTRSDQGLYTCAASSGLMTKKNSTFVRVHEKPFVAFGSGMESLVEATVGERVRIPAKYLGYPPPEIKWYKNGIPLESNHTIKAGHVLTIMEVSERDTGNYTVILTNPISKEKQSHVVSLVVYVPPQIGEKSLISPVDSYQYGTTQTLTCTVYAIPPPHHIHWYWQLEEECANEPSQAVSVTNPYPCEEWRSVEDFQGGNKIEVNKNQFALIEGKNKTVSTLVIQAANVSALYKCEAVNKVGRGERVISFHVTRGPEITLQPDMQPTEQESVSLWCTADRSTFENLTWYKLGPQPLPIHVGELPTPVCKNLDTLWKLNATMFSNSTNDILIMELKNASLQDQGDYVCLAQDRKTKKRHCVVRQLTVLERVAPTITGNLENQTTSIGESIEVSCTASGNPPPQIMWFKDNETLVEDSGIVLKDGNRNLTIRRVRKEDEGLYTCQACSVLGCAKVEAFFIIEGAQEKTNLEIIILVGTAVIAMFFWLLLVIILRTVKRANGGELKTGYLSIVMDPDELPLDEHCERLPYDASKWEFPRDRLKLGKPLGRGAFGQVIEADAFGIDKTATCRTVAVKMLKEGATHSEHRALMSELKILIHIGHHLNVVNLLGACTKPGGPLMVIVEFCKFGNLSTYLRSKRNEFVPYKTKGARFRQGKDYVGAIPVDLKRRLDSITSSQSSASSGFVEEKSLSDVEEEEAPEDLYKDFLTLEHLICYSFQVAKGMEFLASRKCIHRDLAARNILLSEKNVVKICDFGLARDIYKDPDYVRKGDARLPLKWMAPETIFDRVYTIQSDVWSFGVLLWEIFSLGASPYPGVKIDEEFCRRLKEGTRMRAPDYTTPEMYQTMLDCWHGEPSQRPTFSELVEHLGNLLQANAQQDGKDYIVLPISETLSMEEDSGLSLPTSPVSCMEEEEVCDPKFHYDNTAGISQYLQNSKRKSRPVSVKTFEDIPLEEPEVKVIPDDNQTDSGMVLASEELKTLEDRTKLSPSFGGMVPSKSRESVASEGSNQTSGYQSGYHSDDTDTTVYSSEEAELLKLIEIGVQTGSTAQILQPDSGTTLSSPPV

The term IC50 denotes the concentration that inhibits the measured activity by half. On to `c1cc(-c2cnn3cc(-c4ccc(N5CCNCC5)cc4)cnc23)c2cccnc2c1`, for which, in assay [1], the half-maximal inhibitory concentration (IC50) was 253 µM. Regarding `COc1ccc(-c2cnc3c(-c4cccc5cccnc45)cnn3c2)cc1`, the IC50 result in assay [1] and in assay [2] was “inactive” throughout. As for `COc1ccc(-c2cnc3c(-c4cccc5ncccc45)cnn3c2)cc1`, the IC50 entry in assay [2] was “inactive”.
